We go through eleven compounds from patent US10538555B2, “Macrocyclic inhibitors of the PD-1/PD-L1 and CD80(B7-1)/PD-L1 protein/protein interactions” (BRISTOL-MYERS SQUIBB COMPANY, priority 2014, dated 2020).

pIC50: −log10 of the molar value. Read-outs that look alike come from different tables or passages of the source. Where a SMILES comes first, the peptide text is derived from it. Bridges are numbered along the chain shown (N, C = ends). [ ]: non-standard residue; d: D form. ξ: configuration not given here. Phe(3,4,5-F3) = N[C@@H](Cc1cc(F)c(F)c(F)c1)C(=O)O; Phe(3,4-(OMe)2) = COc1ccc(C[C@H](N)C(=O)O)cc1OC; Phe(3,4-F2) = N[C@@H](Cc1ccc(F)c(F)c1)C(=O)O; NMePhe(4-F) = CN[C@@H](Cc1ccc(F)cc1)C(=O)O; Phe(4-F) = N[C@@H](Cc1ccc(F)cc1)C(=O)O; d(cisHyp) = O=C(O)[C@H]1C[C@@H](O)CN1; Bta = N[C@@H](Cc1csc2ccccc12)C(=O)O; NMeIle(3ξ) = CCC(C)[C@H](NC)C(=O)O; Hyp = O=C(O)[C@@H]1C[C@@H](O)CN1; NMeF = CN[C@@H](Cc1ccccc1)C(=O)O; dNMeF = CN[C@H](Cc1ccccc1)C(=O)O; NMehSer = CN[C@@H](CCO)C(=O)O; NMeNle = CCCC[C@H](NC)C(=O)O; dPip = O=C(O)[C@H]1CCCCN1; hSer = N[C@@H](CCO)C(=O)O; NMeA = CN[C@@H](C)C(=O)O; Orn = NCCC[C@H](N)C(=O)O; Dab = NCC[C@H](N)C(=O)O; Abu = CC[C@H](N)C(=O)O; ξC = NC(CS)C(=O)O; Sar = CNCC(=O)O

The test addresses T1, Human PD-L1/PD-1 (Homo sapiens, UniProt Q9NZQ7).
T1 construct: TVMV protease cleavage site (C); made in house; host or cells: HEK293T cells
The test is described as follows: HTRF Human PD-L1/PD-1 binding assay (PD-1-Ig/PD-L1-His). The note with it: PD-L1-His 10 nM, PD-1-Ig 20 nM. Put shortly:
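Compound preincubated 15 min with PD-L1-His (10 nM final), then PD-1-Ig (20 nM final) added for 15 min in dPBS with 0.1% BSA and 0.05% Tween-20. Detection by Eu-cryptate anti-Ig (1 nM) and APC anti-His (20 nM) after 30 min; 665/620 nm HTRF ratio. Proteins expressed in HEK293T.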
For orientation: Time-resolved FRET reads energy transfer from a long-lived donor to a nearby acceptor.

The mark [1] stands for this setting: class symbol, read-out: HTRF Human PD-L1/PD-1 Binding Assay IC50 Range.

T1 sequence (Q9NZQ7 with tags, fused parts or gaps): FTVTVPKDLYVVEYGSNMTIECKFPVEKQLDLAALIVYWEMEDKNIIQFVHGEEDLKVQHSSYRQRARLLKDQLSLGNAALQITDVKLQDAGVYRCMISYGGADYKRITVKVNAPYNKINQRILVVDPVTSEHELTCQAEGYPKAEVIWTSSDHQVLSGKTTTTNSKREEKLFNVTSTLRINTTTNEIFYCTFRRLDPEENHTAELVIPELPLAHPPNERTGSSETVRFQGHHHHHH

On to `CCCC[C@H]1C(=O)N(C)[C@@H](CCCC)C(=O)N[C@@H](CCC(=O)O)C(=O)N[C@H](C(=O)NCC(N)=O)CSCC(=O)N[C@@H](Cc2ccc(O)cc2)C(=O)N(C)[C@@H](C)C(=O)N[C@@H](CC(=O)O)C(=O)N2CCC[C@H]2C(=O)N[C@@H](Cc2c[nH]cn2)C(=O)N[C@@H](CCCCNC(C)=O)C(=O)N2C[C@H](O)C[C@H]2C(=O)N[C@@H](Cc2c[nH]c3ccccc23)C(=O)N[C@@H](CO)C(=O)N[C@@H](Cc2c[nH]c3ccccc23)C(=O)N1C` [Example 5255] ({CH2CO}-Y[NMeA]DPHK(Ac)[Hyp]WSW[NMeNle][NMeNle]ECG-NH2; thioether N-14), for which the pIC50 under setting [1] was 8.00 to 9.00. Same read-out and setting: the same measure for `CCCC[C@H]1C(=O)N2C[C@H](O)C[C@@H]2C(=O)N[C@@H](CC(=O)O)C(=O)N[C@@H](C(C)C)C(=O)N(C)[C@H](Cc2ccccc2)C(=O)N[C@@H](CC(=O)O)C(=O)N2C[C@H](O)C[C@@H]2C(=O)N[C@@H](Cc2c[nH]c3ccccc23)C(=O)N[C@@H](Cc2ccc(O)cc2)C(=O)N[C@@H](CCCN)C(=O)N[C@H](C(=O)NCC(N)=O)CSCC(=O)N[C@@H](Cc2ccc(F)c(F)c2)C(=O)N(C)[C@@H](Cc2ccccc2)C(=O)N1C` [Example 9301] ({CH2CO}-[Phe(3,4-F2)][NMeF][NMeNle][d(cisHyp)]DV[dNMeF]D[d(cisHyp)]WY[Orn]CG-NH2; thioether N-13): 8.00 to 9.00. The same measure, in the same setting: to `CCCC[C@H]1C(=O)N2CCC[C@@H]2C(=O)N[C@@H](CC(=O)O)C(=O)N[C@@H](C(C)C)C(=O)N(C)[C@@H](Cc2ccccc2)C(=O)N[C@@H](CCC(=O)O)C(=O)N2CCCC[C@@H]2C(=O)N[C@@H](Cc2c[nH]c3ccccc23)C(=O)N[C@@H](Cc2ccc(O)cc2)C(=O)N[C@@H](CCN)C(=O)N[C@H](C(=O)NCC(N)=O)CSCC(=O)N[C@@H](Cc2cc(F)c(F)c(F)c2)C(=O)N(C)[C@@H](Cc2ccc(F)cc2)C(=O)N1C` [Example 10568] ({CH2CO}-[Phe(3,4,5-F3)][NMePhe(4-F)][NMeNle][dP]DV[NMeF]E[dPip]WY[Dab]CG-NH2; thioether N-13) belongs 8.00 to 9.00. Take `CCCC[C@H]1C(=O)N2C[C@H](O)C[C@@H]2C(=O)N[C@@H](CC(=O)O)C(=O)N[C@@H](C(C)C)C(=O)N(C)[C@@H](Cc2ccccc2)C(=O)N[C@@H](CCC(N)=O)C(=O)N2C[C@H](O)C[C@@H]2C(=O)N[C@@H](Cc2c[nH]c3ccccc23)C(=O)N[C@@H](Cc2ccc(O)cc2)C(=O)N[C@@H](CCCN)C(=O)N[C@H](C(=O)NCC(N)=O)CSCC(=O)N[C@@H](Cc2ccc(F)c(F)c2)C(=O)N(C)[C@@H](Cc2ccccc2)C(=O)N1C` [Example 9302] ({CH2CO}-[Phe(3,4-F2)][NMeF][NMeNle][d(cisHyp)]DV[NMeF]Q[d(cisHyp)]WY[Orn]CG-NH2; thioether N-13): the pIC50 under setting [1] is 8.00 to 9.00. On the same count and under the same terms, the same measure for `CCCC[C@H]1C(=O)N2CCC[C@@H]2C(=O)N[C@@H](CO)C(=O)N[C@@H](CC)C(=O)N(C)[C@@H](Cc2ccccc2)C(=O)N[C@@H](Cc2ccc(O)cc2)C(=O)N(C)CC(=O)N[C@@H](Cc2csc3ccccc23)C(=O)N[C@@H](Cc2ccc(O)cc2)C(=O)N[C@@H](CC(C)C)C(=O)N[C@H](C(=O)NCC(N)=O)CSCC(=O)N[C@@H](Cc2ccccc2)C(=O)N(C)[C@@H](Cc2ccccc2)C(=O)N1C` [Example 10059] ({CH2CO}-F[NMeF][NMeNle][dP]S[Abu][NMeF]Y[Sar][Bta]YLCG-NH2; thioether N-13): 7.00 to 8.00; for `CCCC[C@H]1C(=O)N(C)[C@@H](CCCC)C(=O)N[C@@H](CCCNC(=N)N)C(=O)N[C@H](C(=O)NCC(N)=O)CSCC(=O)N[C@@H](Cc2ccc(OC)c(OC)c2)C(=O)N(C)[C@@H](C)C(=O)N[C@@H](CC(N)=O)C(=O)N2CCC[C@H]2C(=O)N[C@@H](Cc2cnc[nH]2)C(=O)N[C@@H](CC(C)C)C(=O)N2C[C@H](O)C[C@H]2C(=O)N[C@@H](Cc2c[nH]c3ccccc23)C(=O)N[C@@H](CO)C(=O)N[C@@H](Cc2c[nH]c3ccccc23)C(=O)N1C` [Example 7072] ({CH2CO}-[Phe(3,4-(OMe)2)][NMeA]NPHL[Hyp]WSW[NMeNle][NMeNle]RCG-NH2; thioether N-14): 8.00 to 9.00; for `CCCC[C@H]1C(=O)N(C)[C@@H](CCCC)C(=O)N[C@@H](CCC(=O)O)C(=O)N[C@H](C(=O)NCC(N)=O)CSCC(=O)N[C@@H](Cc2ccc(O)cc2)C(=O)N(C)[C@@H](C)C(=O)N[C@@H](CC(N)=O)C(=O)N2CCC[C@H]2C(=O)N[C@@H](CO)C(=O)N[C@@H](CCC(N)=O)C(=O)N2C[C@H](O)C[C@H]2C(=O)N[C@@H](Cc2c[nH]c3ccccc23)C(=O)N[C@@H](CCN)C(=O)N[C@@H](Cc2c[nH]c3ccccc23)C(=O)N1C` [Example 5251] ({CH2CO}-Y[NMeA]NPSQ[Hyp]W[Dab]W[NMeNle][NMeNle]ECG-NH2; thioether N-14): 8.00 to 9.00. Still for that read-out and setting: the same measure for `CCCC[C@H]1C(=O)N2CCC[C@@H]2C(=O)N[C@@H](CC(=O)O)C(=O)N[C@@H](C(C)C)C(=O)N(C)[C@@H](C(C)CC)C(=O)N[C@@H](Cc2ccc(O)cc2)C(=O)N2CCCC[C@@H]2C(=O)N[C@@H](Cc2c[nH]c3ccccc23)C(=O)N[C@@H](Cc2ccc(O)cc2)C(=O)N[C@@H](CCCN)C(=O)N[C@H](C(=O)NCC(N)=O)CSCC(=O)N[C@@H](Cc2ccc(F)cc2)C(=O)N(C)[C@@H](Cc2ccccc2)C(=O)N1C` (some centres unmarked) [Example 9259] ({CH2CO}-[Phe(4-F)][NMeF][NMeNle][dP]DV[NMeIle(3ξ)]Y[dPip]WY[Orn]CG-NH2; thioether N-13): 5.00 to 6.00. Take `CCCC[C@H]1C(=O)N(C)[C@@H](CCOC)C(=O)N[C@@H](CC(C)C)C(=O)N[C@H](C(=O)NCC(N)=O)CSCC(=O)N[C@@H](Cc2ccc(O)cc2)C(=O)N(C)[C@@H](C)C(=O)N[C@@H](CC(N)=O)C(=O)N2CCC[C@H]2C(=O)N[C@@H](Cc2c[nH]cn2)C(=O)N[C@@H](CCC(N)=O)C(=O)N2C[C@H](O)C[C@H]2C(=O)N[C@@H](Cc2c[nH]c3ccccc23)C(=O)NCC(=O)N[C@@H](Cc2c[nH]c3ccccc23)C(=O)N1C` [Example 10143] ({CH2CO}-Y[NMeA]NPHQ[Hyp]WGW[NMeNle][NMehSer](Me)LCG-NH2; thioether N-14): under “read-out: HTRF Human PD-L1/PD-1 Binding Assay IC50”, the pIC50 is 7.96. As for `CCCC[C@H]1C(=O)N(C)[C@@H](CCCC)C(=O)N[C@@H](CCCNC(=N)N)C(=O)NC(C(=O)NCC(N)=O)CSCC(=O)N[C@@H](Cc2ccc(O)cc2)C(=O)N(C)[C@@H](C)C(=O)N[C@@H](CC(N)=O)C(=O)N2CCC[C@H]2C(=O)N[C@@H](CCO)C(=O)N[C@@H](CO)C(=O)N2C[C@H](O)C[C@H]2C(=O)N[C@@H](Cc2c[nH]c3ccccc23)C(=O)N[C@@H](CO)C(=O)N[C@@H](Cc2csc3ccccc23)C(=O)N1C` (some centres unmarked) [Example 10023] ({CH2CO}-Y[NMeA]NP[hSer]S[Hyp]WS[Bta][NMeNle][NMeNle]R[ξC]G-NH2; thioether N-14), under setting [1], the pIC50 is 7.00 to 8.00.

With `CCCC[C@H]1C(=O)N(C)[C@@H](CCCC)C(=O)N[C@@H](CN)C(=O)N[C@H](C(=O)NCC(N)=O)CSCC(=O)N[C@@H](Cc2ccc(O)cc2)C(=O)N(C)[C@@H](C)C(=O)N[C@@H](CC(=O)O)C(=O)N2CCC[C@H]2C(=O)N[C@@H](Cc2c[nH]cn2)C(=O)N[C@@H](CCC(=O)O)C(=O)N2C[C@H](O)C[C@H]2C(=O)N[C@@H](Cc2c[nH]c3ccccc23)C(=O)N[C@@H](CCN)C(=O)N[C@@H](Cc2cn(CC(=O)O)c3ccccc23)C(=O)N1C` (single isomer, unassigned) [Example 5203], the pIC50 under setting [1] is 8.00 to 9.00.
